The values that follow come from PubChem BioAssay (NCI).

Some test systems named below: EKVX NSCLC; NCI-H23 lung; 786-0 renal; NCI-H226 lung; SW-620 colon; CAKI-1 renal; KM12 colon; ACHN renal; UACC-257 melanoma; LOX IMVI melanoma; A498 renal; K-562 leukemia; OVCAR-5 ovarian; UO-31 renal; HT29 colon; HCT-15 colon.
Common to all, as to assay: NCI tumour cell line growth inhibition, 48 h

Structures are written as SMILES.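 96-well plates; 48 h exposure; 5 concentrations. Endpoints by linear interpolation between flanking doses. Not reached: highest tested concentration assigned. TGI is the concentration that stops growth completely.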

Regarding `CC(=O)O/N=C/c1ncccc1OC(C)=O`, the TGI in the assay with EKVX NSCLC, in the assay on NCI-H23 lung, with 786-0 renal, in the assay on NCI-H226 lung, in the assay on SW-620 colon and with CAKI-1 renal was above 100 µM each time. Besides, the TGI with KM12 colon, in the assay on ACHN renal, with UACC-257 melanoma, with LOX IMVI melanoma, with A498 renal and with K-562 leukemia was above 100 µM throughout. Further, the TGI in the assay on OVCAR-5 ovarian, with UO-31 renal, in the assay with HT29 colon and in the assay on HCT-15 colon was above 100 µM each time.

For `CCCN(CCCC(NC(C)=O)C(=O)NCc1ccccc1)C(=O)NC` (configuration not stated), the TGI in the assay with EKVX NSCLC, in the assay with NCI-H23 lung, in the assay with 786-0 renal, in the assay with NCI-H226 lung, with SW-620 colon and in the assay on CAKI-1 renal was above 100 µM throughout. The TGI with KM12 colon, in the assay on ACHN renal, in the assay with UACC-257 melanoma, in the assay on LOX IMVI melanoma, in the assay with A498 renal and in the assay on K-562 leukemia was above 100 µM throughout. For the same compound, the TGI in the assay on OVCAR-5 ovarian, in the assay with UO-31 renal, in the assay on HT29 colon and in the assay with HCT-15 colon was above 100 µM in each case.

As for `CCOC(=O)CCC(NC(=O)c1ccc(Oc2nc3ccc(C(F)(F)F)cc3nc2-c2ccccc2)cc1)C(=O)OCC` (configuration not stated), the TGI with EKVX NSCLC was 64 µM; in the assay with NCI-H23 lung it was above 79.2 µM; in the assay on 786-0 renal it was 32.9 µM; in the assay on NCI-H226 lung, 17.6 µM; in the assay with SW-620 colon, above 100 µM; in the assay with CAKI-1 renal, 26.9 µM. In addition, the TGI with KM12 colon was above 100 µM; with ACHN renal it was above 100 µM; in the assay on UACC-257 melanoma, above 100 µM; in the assay on LOX IMVI melanoma, above 100 µM; in the assay with A498 renal, above 31.6 µM; with K-562 leukemia it was above 100 µM. In addition, the TGI with OVCAR-5 ovarian is above 100 µM; in the assay on UO-31 renal it was above 100 µM; in the assay on HT29 colon, above 75.2 µM; in the assay with HCT-15 colon, above 100 µM.

In the case of `NC(=O)N1N=C2c3ccccc3CC[C@@H]2C1c1ccccc1` (some centres not stated), the TGI with EKVX NSCLC, in the assay with NCI-H23 lung, in the assay on 786-0 renal, in the assay on NCI-H226 lung, in the assay on SW-620 colon and with CAKI-1 renal was above 100 µM in each case. Besides, the TGI in the assay on KM12 colon, with ACHN renal, in the assay on UACC-257 melanoma, with LOX IMVI melanoma, in the assay on A498 renal and in the assay with K-562 leukemia was above 100 µM in each case. Besides, the TGI in the assay with OVCAR-5 ovarian, in the assay on UO-31 renal, in the assay with HT29 colon and in the assay with HCT-15 colon was above 100 µM each time.

As for `COC(=O)C1=C(C(=O)OC)C2(OC(C)=O)c3ccccc3-c3ccccc3C12` (configuration not stated), the TGI in the assay with EKVX NSCLC worked out at 24.1 µM; in the assay with NCI-H23 lung, 25.6 µM; in the assay with 786-0 renal, 8.26 µM; in the assay on NCI-H226 lung, 31.2 µM; in the assay on SW-620 colon it was 3.12 µM; in the assay on CAKI-1 renal it was 6.08 µM. Besides, the TGI with KM12 colon was found to be 26.8 µM; with ACHN renal, 6.48 µM; in the assay with UACC-257 melanoma, 11.8 µM; in the assay on LOX IMVI melanoma, 9.51 µM; in the assay with A498 renal, 32 µM; in the assay on OVCAR-5 ovarian, 27.2 µM. Besides, the TGI with UO-31 renal was 8.97 µM; in the assay on HT29 colon, 10.6 µM; in the assay on HCT-15 colon, 10.3 µM.

Consider `N#Cc1c(-c2ccco2)cc(-c2ccc(NCc3nc4ccccc4[nH]3)cc2)nc1N`, for which the TGI in the assay on NCI-H23 lung is 48.8 µM; with 786-0 renal it was 87.9 µM; with SW-620 colon, above 100 µM; in the assay with CAKI-1 renal, above 100 µM; with KM12 colon, 38 µM; in the assay with ACHN renal, above 100 µM. The TGI with LOX IMVI melanoma is 32.7 µM; with A498 renal it was above 100 µM; with K-562 leukemia it was 71.7 µM; with OVCAR-5 ovarian it was above 100 µM; in the assay with UO-31 renal it was 58.7 µM; in the assay with HT29 colon it was 91.7 µM. In the assay with HCT-15 colon, the TGI is 69.2 µM.

For `COc1cccc(NC(=S)Nn2c(C)nc3ccccc3c2=O)c1`, the TGI with NCI-H23 lung, in the assay with 786-0 renal, with NCI-H226 lung, in the assay with SW-620 colon, in the assay on CAKI-1 renal and in the assay on KM12 colon was above 100 µM throughout. For the same compound, the TGI in the assay on ACHN renal, in the assay on UACC-257 melanoma, in the assay with LOX IMVI melanoma, in the assay on A498 renal, in the assay on K-562 leukemia and in the assay with OVCAR-5 ovarian was above 100 µM in each case. Besides, the TGI in the assay on UO-31 renal, in the assay with HT29 colon and in the assay with HCT-15 colon was above 100 µM throughout.

On to `COc1ccc(C(O)/C(=N\NC(N)=S)c2nc3ccc([N+](=O)[O-])cc3[nH]c2=O)cc1OC` (configuration not stated), for which the TGI in the assay with EKVX NSCLC, with NCI-H23 lung, in the assay with 786-0 renal, in the assay with NCI-H226 lung, in the assay on SW-620 colon and in the assay with KM12 colon was above 100 µM each time. Moreover, the TGI with ACHN renal, in the assay on UACC-257 melanoma, in the assay on LOX IMVI melanoma, in the assay on A498 renal, in the assay with K-562 leukemia and in the assay on OVCAR-5 ovarian was above 100 µM each time. Also, the TGI in the assay with UO-31 renal and with HT29 colon was above 100 µM each time.

For the compound `COc1ccc(C2C3C(=O)C=CC(=O)C3[C@@H]2C)cc1OC` (some centres not stated), the TGI in the assay on EKVX NSCLC, with NCI-H23 lung, in the assay on 786-0 renal, in the assay with NCI-H226 lung, with SW-620 colon and with CAKI-1 renal was above 100 µM each time. For the same compound, the TGI with KM12 colon, with ACHN renal, in the assay with UACC-257 melanoma, in the assay on LOX IMVI melanoma, in the assay on A498 renal and with K-562 leukemia was above 100 µM in each case. The TGI with OVCAR-5 ovarian was above 100 µM; with UO-31 renal, above 100 µM; in the assay with HT29 colon it was above 100 µM; in the assay with HCT-15 colon it was 62.4 µM.
